In patent US8124364B2, “Biotin derivatives” (Glycorex Transplantation AB, priority 2000, dated 2012):

Assays:
Mitra Avidin-Agarose = target: T1, Mitra Avidin-Agarose (Gallus gallus, UniProt P02701); assay: Adsorption of biotin-trimer to avidin-agarose column (conditioning), concentration in recirculated fluid by ELISA; assay type: binding; conditions: 2 mL Mitra Avidin-Agarose; 5 mL of 1 mg/mL biotin-trimer in PBS recirculated at 1 mL/min for 20 minutes; end of recirculation
T1 construct: Mitra
T1 sequence (P02701 25-152): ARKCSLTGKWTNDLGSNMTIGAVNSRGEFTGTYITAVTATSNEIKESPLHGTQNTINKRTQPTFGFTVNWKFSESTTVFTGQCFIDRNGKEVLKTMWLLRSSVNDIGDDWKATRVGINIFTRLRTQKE
Procedure: Two mL of Mitra Avidin-Agarose was packed into a column housing and was washed with >10 mL of PBS at a flow rate of 1 mL/min (1.6 cm/min). Five mL of a 1 mg/mL solution of biotin-trimer in PBS was recirculated through the avidin-column at 1 mL/min for 20 minutes. At end of the recirculation, a sample (0.5 mL) was drawn from the recirculated solution and analysed by an ELISA technique developed by Mitra Medical Technology AB. The biotin-avidin-agarose-column was washed with phosphate buffer at 1 mL/min for 20 minutes. By determining the concentration of biotin-trimer in the recirculated fluid, the amount of adsorbed biotin-trimer was estimated to about 1.9 mg i.e. 0.95 mg/mL of gel at the end of recirculation.
Biotin-trimer was adsorbed to 2 mL of Mitra Avidin-Agarose. […] If one biotin-trimer is bound per available binding site this would correspond to […] biotin-trimer/mL. As about 0.95 mg biotin-trimer was bound per mL avidin-agarose it can be assumed that the adsorbent was saturated with biotin-trimer.

avidin = avidin (Gallus gallus, UniProt P02701); assay: Assessment of avidin adsorption on a column conditioned with biotin trimer, avidin by ELISA; assay type: binding
Sequence of avidin (P02701 25-152): as above
Procedure: An avidin-agarose column that was conditioned with a biotin trimer (i.e. FIG. 4, compound #2) was primed with phosphate buffer. Following this, 20 mL avidin-solution with 1 mg avidin/mL in PBS was recirculated through a biotin-avidin-agarose-column at 1.0 mL/min (1.6 cm/min). Three volumes of the avidin solution (3×20 mL) were processed and aliquots were drawn from the reservoir before start of the recirculation, then after 2 main and in 5 min intervals. The aliquots were analyzed for the quantity of avidin in them using an ELISA technique developed by Mitra Medical Technology AB. The dotted line represented the theoretically expected if no saturation effect has occurred. The column is saturated after about 40 min (2 vol.) when about 16 mg (80%) of, avidin has been bound. Signs of saturation was seen after about 20 min (1.0 vol.) when the experimental curve begin to deviate from the theoretical curve which occurred when about 10 mg of Avidin had been bound to the column.
After a 40 min recirculation, about 16 mg of avidin was bound, i.e. 8 mg/mL biotin-avidin-agarose. This corresponds to a 1:1 molar ration between the avidin coupled to agarose and the avidin adsorbed to the biotin-trimer. Initial saturation effects were seen after about one recirculated volume. After 2 volumes processed no further avidin was bound.

O=C(CCCCC1OCC2NC(=O)NC21)NCCOCCOCCNC(=O)c1cc(C(=O)NCCOCCOCCNC(=O)CCCCC2OCC3NC(=O)NC32)cc(C(=O)NCCOCCOCCNC(=O)CCCCC2OCC3NC(=O)NC32)c1 (stereo not drawn) [biotin-trimer]
amount of adsorbed biotin-trimer (Mitra Avidin-Agarose): about 1.9 mg | time until signs of saturation (avidin; 1.0 vol.): about 20 min | avidin bound at saturation of the column (avidin; 20 mL of 1 mg avidin/mL in PBS recirculated at 1.0 mL/min, after about 40 min (2 vol.)): about 16 mg | avidin bound when signs of saturation were seen (avidin; after about 20 min (1.0 vol.), experimental curve begins to deviate from theoretical curve): about 10 mg | share of avidin bound at saturation (avidin; after about 40 min (2 vol.)): ~80% | time until the column is saturated (avidin; recirculation at 1.0 mL/min, 2 vol.): about 40 min
